Experimental data taken from patent publication US20070148684A1, “IMMUNOASSAY FOR HIV PROTEASE INHIBITORS” (priority 2000, published 2007).

Test system: saquinavir antiserum
Assay: Assay specificity determination: competitive microtiter plate ELISA with saquinavir-BSA coated plate and saquinavir antiserum
Format: binding, sheep
Conditions: for dose-response of optical density at 450 nm (competition for antiserum binding): serial three-fold dilutions of drug in PBS-TWEEN, antiserum 1:12,800, 62.5 ng/ml saquinavir-BSA coat
Experimental: Corning micro-ELISA plates (96 wells) were used throughout. The saquinavir-BSA conjugate was diluted to 2 μg/ml in 0.1 M sodium carbonate buffer, pH 9.5. One hundred microliters of the buffer was placed in the wells of each row of the plate except the first row. The first row was filled with 200 μL of the 2 μg/ml saquinavir-BSA solution, and a twelve-tip micropipettor was used to transfer 100 μl from the first row to the second row of all columns at the same time. Mixing of contents of the second row was accomplished by re-pipetting 3 times. One hundred microliters from the second row was then transferred to the third row and mixed. This was repeated to the last row of the plate. After mixing, 100 μl was removed from the last row and discarded. The plate was placed in a humidified Zip-Loc bag and incubated for 1 hour at 37° C. After incubation, the plate was removed from the incubator and bag and emptied into a waste container. PostCoat solution was added to each well in the amount of 200 μl. This solution consisted of 1% gelatin hydrolysate, 2% sucrose, 0.15 M Tris, pH 7.4, 0.17% TWEEN 20 (ICI Americas Inc.), and 0.02% Thimerosal preservative. All reagents were from Sigma Chemicals. The plate was returned to the humidified bag and placed in the incubator for 1 hour. Five minutes before the incubation was complete, Zymed rabbit anti-sheep IgG-HRP conjugate was diluted 1:2000 in PBS-TWEEN and vortexed gently to completely mix. Upon completion of the hour incubation, the plate was washed 4 times with 300 μl of PBS-TWEEN using a BioTek Instruments, Inc. EL404 plate washer. One hundred microliters of the diluted rabbit anti-sheep IgG-HRP conjugate was then pipetted into each well, the plate re-bagged and incubated for 1 hour. At the completion of the hour, the plate was removed from the incubator and bag and washed six times on the plate washer. One hundred microliters of K-BLUE enzyme substrate (Neogen, Inc.) was then added to each well and color allowed to develop in the dark for 5 minutes. Color development was halted by the addition of 100 μl of 1 N hydrochloric acid to each well. The optical density of each well was measured at two wavelengths, 405 nm and 450 nm using a Molecular Devices, Inc. ThermoMax plate reader. […] Therefore, the OD405 measurements were used to calculate the extrapolated OD450 by the well-known method of using a linear least squares regression of readings at both wavelengths. An ELISA plate was coated with the above concentrations of saquinavir-BSA using the same conditions as set forth above. While the plates were being PostCoated, serial three-fold dilutions of saquinavir, ritonavir, indinavir, and nelfinavir were prepared in a 1 ml capacity 96-well plate. All drugs were prepared at 1 mg/ml in absolute methanol and stored at 4° C. until used. […]

Compound	cross-reaction of the antiserum (relative to saquinavir, calculated from OD450 dose-response data)	dose-response of optical density at 450 nm (competition for antiserum binding)	inhibition with respect to zero drug (lowest non-zero drug concentration in Example 5 (7 dilution steps))
Cc1c(O)cccc1C(=O)N[C@@H](CSc1ccccc1)[C@H](O)CN1C[C@H]2CCCC[C@H]2C[C@H]1C(=O)NC(C)(C)C [nelfinavir]	0.4%	lesser response	–
CC(C)(C)NC(=O)[C@@H]1C[C@@H]2CCCC[C@@H]2CN1C[C@@H](O)[C@H](Cc1ccccc1)NC(=O)[C@H](CC(N)=O)NC(=O)c1ccc2ccccc2n1 [saquinavir]	–	dose-response curve	~50%
